Data published in ChEMBL document CHEMBL5579851, “Synthesis and antifungal evaluation of novel triazole derivatives bearing a pyrazole-methoxyl moiety” (Eur J Med Chem, 2024).
Values after ≈ are worked out from the molar mass of the structure shown. Active and inactive are the calls of the source. The rule behind the calls is not given here.

Legend:
Saccharomyces cerevisiae [1] = experiment: Antifungal activity against recombinant Saccharomyces cerevisiae Y2769 overexpressing CauErg11 K143R mutant assessed as inhibition of fungal growth incubated for 48 hrs by CLSI based broth microdilution assay; assay type: functional
[2] = target: T1, Lanosterol 14-alpha demethylase (Candida albicans (strain SC5314 / ATCC MYA-2876) (Yeast), UniProt P10613); experiment: Inhibition of CYP51 in Candida albicans SC5314 assessed as 14alpha-methylfecosterol level at 0.0625 ug/ml after 8 hrs by GC-MS analysis relative to control; design: scale not given: the % may be the effect or the level left; conditions: at 0.0625 µg/mL
Saccharomyces cerevisiae [3] = experiment: Antifungal activity against recombinant Saccharomyces cerevisiae Y525 overexpressing CaMdr1 assessed as inhibition of fungal growth incubated for 48 hrs by CLSI based broth microdilution assay; assay type: functional
[4] = target: T1, Lanosterol 14-alpha demethylase; experiment: Inhibition of CYP51 in Candida albicans SC5314 assessed as obtusifoliol level at 0.0625 ug/ml after 8 hrs by GC-MS analysis relative to control; design: scale not given: the % may be the effect or the level left; conditions: at 0.0625 µg/mL
Candida parapsilosis [5] = experiment: Antifungal activity against Candida parapsilosis 22019 assessed as inhibition of fungal growth at 0.125 ug/ml measured up to 48 hrs by TECAN plate reader analysis; assay type: functional, organism-based; conditions: dose 0.125 µg/ml
Candida albicans [6] = experiment: Antibiofilm activity against Candida albicans SC5314 assessed as inhibition of biofilm formation at 64 ug/mL incubated for 24 hrs by XTT assay relative to control; assay type: functional
Cryptococcus neoformans [7] = experiment: Antifungal activity against Cryptococcus neoformans 32609 assessed as inhibition of fungal growth at 0.125 ug/ml measured up to 48 hrs by TECAN plate reader analysis; assay type: functional, organism-based; conditions: dose 0.125 µg/ml
Saccharomyces cerevisiae [8] = experiment: Antifungal activity against recombinant Saccharomyces cerevisiae Y2768 overexpressing CauErg11 T132F mutant assessed as inhibition of fungal growth incubated for 48 hrs by CLSI based broth microdilution assay; assay type: functional
Saccharomyces cerevisiae [9] = experiment: Antifungal activity against recombinant Saccharomyces cerevisiae Y570 overexpressing CaCdr1 assessed as inhibition of fungal growth incubated for 48 hrs by CLSI based broth microdilution assay; assay type: functional
Candida tropicalis [10] = experiment: Potency index, ratio of fluconazole MIC to test compound MIC for antifungal activity against Candida tropicalis 8915 assessed as inhibition of fungal growth incubated for 48 hrs by CLSI based broth microdilution assay; assay type: functional
Nakaseomyces glabratus [11] = experiment: Antifungal activity against Candida glabrata 537 assessed as inhibition of fungal growth incubated for 48 hrs by CLSI based broth microdilution assay; assay type: functional
Saccharomyces cerevisiae [12] = experiment: Antifungal activity against recombinant Saccharomyces cerevisiae Y2301 overexpressing ScErg11 Y140F mutant assessed as inhibition of fungal growth incubated for 48 hrs by CLSI based broth microdilution assay; assay type: functional
[Candida] auris = Antifungal activity against fluconazole-resistant Candida auris 891 assessed as inhibition of fungal growth incubated for 48 hrs by CLSI based broth microdilution assay; assay type: functional; conditions: Candidozyma auris
Candida tropicalis [13] = experiment: Antifungal activity against Candida tropicalis 8915 assessed as inhibition of fungal growth incubated for 48 hrs by CLSI based broth microdilution assay; assay type: functional
Candida albicans [14] = experiment: Antibiofilm activity against Candida albicans SC5314 assessed as increase in matured biofilm distruption incubated for 24 hrs by XTT assay; assay type: functional, organism-based; conditions: dose 0.25-64 µg/ml
Saccharomyces cerevisiae [15] = experiment: Selectivity index, ratio of MIC for antifungal activity against recombinant Saccharomyces cerevisiae Y525 overexpressing CaMdr1 to MIC for antifungal activity against recombinant Saccharomyces cerevisiae Y2411 overexpressing ScErg11; assay type: functional
Candida albicans [16] = experiment: Antifungal activity against fluconazole-resistant Candida albicans 904 assessed as inhibition of fungal growth incubated for 48 hrs by CLSI based broth microdilution assay; assay type: functional
Candida albicans [17] = experiment: Antifungal activity against fluconazole-resistant Candida albicans 901 assessed as inhibition of fungal growth incubated for 48 hrs by CLSI based broth microdilution assay; assay type: functional
Candida tropicalis [18] = experiment: Potency index, ratio of ravuconazole MIC to test compound MIC for antifungal activity against Candida tropicalis 8915 assessed as inhibition of fungal growth incubated for 48 hrs by CLSI based broth microdilution assay; assay type: functional
Candida parapsilosis [19] = experiment: Antifungal activity against Candida parapsilosis 22019 assessed as inhibition of fungal growth incubated for 48 hrs by CLSI based broth microdilution assay; assay type: functional; conditions: Lodderomyces parapsilosis
Saccharomyces cerevisiae [20] = experiment: Antifungal activity against recombinant Saccharomyces cerevisiae Y2766 overexpressing CauCdr1 assessed as inhibition of fungal growth incubated for 48 hrs by CLSI based broth microdilution assay; assay type: functional
Candida albicans [21] = experiment: Antifungal activity against Candida albicans SC5314 assessed as inhibition of fungal growth at 0.125 ug/ml after 48 hrs by TECAN plate reader analysis relative to control; assay type: functional
Saccharomyces cerevisiae [22] = experiment: Antifungal activity against recombinant Saccharomyces cerevisiae Y2716 overexpressing CpErg11 Y132F mutant/ CpCpr assessed as inhibition of fungal growth incubated for 48 hrs by CLSI based broth microdilution assay; assay type: functional
Cell membrane = experiment: Induction of membrane permeabilization in Candida albicans SC5314 assessed as increase in fluorescence at 0.0625 to 0.5 ug/ml incubated for 8 hrs by propidium iodide staining based fluorescence microscopic analysis; conditions: dose 0.0625-0.5 µg/ml
Pichia kudriavzevii = experiment: Antifungal activity against Candida krusei 4996 assessed as inhibition of fungal growth incubated for 48 hrs by CLSI based broth microdilution assay; assay type: functional
Saccharomyces cerevisiae [23] = experiment: Antifungal activity against recombinant Saccharomyces cerevisiae Y2459 overexpressing CaErg11/CaCpr assessed as inhibition of fungal growth incubated for 48 hrs by CLSI based broth microdilution assay; assay type: functional
Candida albicans [24] = experiment: Antifungal activity against Candida albicans SC5314 assessed as inhibition of hyphae length after 3 hrs by inverted microscopic analysis; assay type: functional, organism-based; conditions: dose 0.0625-1 µg/ml
Saccharomyces cerevisiae [25] = experiment: Antifungal activity against recombinant Saccharomyces cerevisiae Y2374 overexpressing CgErg11 assessed as inhibition of fungal growth incubated for 48 hrs by CLSI based broth microdilution assay; assay type: functional
Nakaseomyces glabratus [26] = experiment: Antifungal activity against Candida glabrata 537 assessed as inhibition of fungal growth at 2 ug/ml measured up to 48 hrs by TECAN plate reader analysis; assay type: functional, organism-based; conditions: dose 2.0 µg/ml
[27] = target: T1, Lanosterol 14-alpha demethylase; experiment: Inhibition of CYP51 in Candida albicans SC5314 assessed as ergosterol level at 0.0625 ug/ml after 8 hrs by GC-MS analysis (reference value: 86.2 %); design: scale not given: the % may be the effect or the level left; conditions: at 0.0625 µg/mL
Saccharomyces cerevisiae [28] = experiment: Antifungal activity against recombinant Saccharomyces cerevisiae Y2513 overexpressing ScErg11 Y140H mutant assessed as inhibition of fungal growth incubated for 48 hrs by CLSI based broth microdilution assay; assay type: functional
Cryptococcus neoformans [29] = experiment: Antifungal activity against Cryptococcus neoformans 32609 assessed as inhibition of fungal growth incubated for 72 hrs by CLSI based broth microdilution assay; assay type: functional
Saccharomyces cerevisiae [30] = experiment: Antifungal activity against recombinant Saccharomyces cerevisiae Y2765 overexpressing CauMdr1 assessed as inhibition of fungal growth incubated for 48 hrs by CLSI based broth microdilution assay; assay type: functional
[31] = target: T1, Lanosterol 14-alpha demethylase; experiment: Inhibition of CYP51 in Candida albicans SC5314 assessed as eburicol level at 0.0625 ug/ml after 8 hrs by GC-MS analysis relative to control; design: scale not given: the % may be the effect or the level left; conditions: at 0.0625 µg/mL
Saccharomyces cerevisiae [32] = experiment: Antifungal activity against recombinant Saccharomyces cerevisiae Y2411 overexpressing ScErg11 assessed as inhibition of fungal growth incubated for 48 hrs by CLSI based broth microdilution assay; assay type: functional

T1 sequence (P10613 whole entry): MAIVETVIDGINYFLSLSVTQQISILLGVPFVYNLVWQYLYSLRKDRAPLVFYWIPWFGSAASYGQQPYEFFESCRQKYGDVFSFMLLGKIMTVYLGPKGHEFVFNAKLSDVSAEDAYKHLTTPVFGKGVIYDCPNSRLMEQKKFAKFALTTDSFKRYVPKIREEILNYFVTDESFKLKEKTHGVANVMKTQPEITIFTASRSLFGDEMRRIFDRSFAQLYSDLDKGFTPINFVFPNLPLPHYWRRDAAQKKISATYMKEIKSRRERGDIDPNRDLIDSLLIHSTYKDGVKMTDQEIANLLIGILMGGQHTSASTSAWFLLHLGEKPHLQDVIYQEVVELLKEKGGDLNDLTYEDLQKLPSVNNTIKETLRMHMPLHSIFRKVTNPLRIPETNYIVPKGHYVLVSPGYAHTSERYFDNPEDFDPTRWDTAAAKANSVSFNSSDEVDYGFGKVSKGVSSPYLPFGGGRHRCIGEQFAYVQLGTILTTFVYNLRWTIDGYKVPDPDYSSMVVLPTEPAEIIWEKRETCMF

C[C@@H](OCc1ccn(Cc2ccc(Cl)cc2)n1)[C@](O)(Cn1cncn1)c1ccc(F)cc1F
MIC (Saccharomyces cerevisiae [1]): 0.008 µg/mL | Activity [2]: ~ 20% | MIC (Saccharomyces cerevisiae [3]): 0.125 µg/mL | Activity [4]: ~ 20% | inhibition (Candida parapsilosis [5]): Active | inhibition at 64 µg/mL (Candida albicans [6]): > 55% | inhibition (Cryptococcus neoformans [7]): Active | MIC (Saccharomyces cerevisiae [8]): 0.0313 µg/mL | MIC (Saccharomyces cerevisiae [9]): 16 µg/mL | Ratio (Candida tropicalis [10]): 256 | MIC (Nakaseomyces glabratus [11]): ≤ 0.125 µg/mL | MIC (Saccharomyces cerevisiae [12]): 0.008 µg/mL | MIC ([Candida] auris): 8 µg/mL (≈ 16.9 µM) | MIC (Candida tropicalis [13]): 0.25 µg/mL (≈ 0.528 µM) | Activity (Candida albicans [14]): Dose-Dependent Effect | Ratio (Saccharomyces cerevisiae [15]): 16 | MIC (Candida albicans [16]): 8 µg/mL (≈ 16.9 µM) | MIC (Candida albicans [17]): 16 µg/mL (≈ 33.8 µM) | Ratio (Candida tropicalis [18]): 32 | MIC (Candida parapsilosis [19]): 0.25 µg/mL (≈ 0.528 µM) | MIC (Saccharomyces cerevisiae [20]): 2 µg/mL | inhibition at 0.125 µg/mL (Candida albicans [21]): 100% | MIC (Saccharomyces cerevisiae [22]): 0.016 µg/mL | Activity (Cell membrane): Active | MIC (Pichia kudriavzevii): 2 µg/mL (≈ 4.22 µM) | MIC (Saccharomyces cerevisiae [23]): 0.008 µg/mL | inhibition (Candida albicans [24]): Dose-Dependent Effect | MIC (Saccharomyces cerevisiae [25]): 0.008 µg/mL | inhibition (Nakaseomyces glabratus [26]): inactive | Activity [27]: 0% | MIC (Saccharomyces cerevisiae [28]): 0.008 µg/mL | MIC (Cryptococcus neoformans [29]): ≤ 0.125 µg/mL | MIC (Saccharomyces cerevisiae [30]): 0.063 µg/mL | Activity [31]: ~ 20% | MIC (Saccharomyces cerevisiae [32]): 0.008 µg/mL
